# Values joined by “and” are separate entries in the source; they are usually repeats but may differ in a detail not shown here. Equal values may be shown once.
# Assays:
# [1] = UV radical generation activity; format: physicochemical
# [2] = target: T1, P2X7 (Homo sapiens, UniProt Q99572); conditions: stated without test; read-out: EC50 as P2X7 agonist; cited from earlier work
# T1 sequence (Q99572 1-595): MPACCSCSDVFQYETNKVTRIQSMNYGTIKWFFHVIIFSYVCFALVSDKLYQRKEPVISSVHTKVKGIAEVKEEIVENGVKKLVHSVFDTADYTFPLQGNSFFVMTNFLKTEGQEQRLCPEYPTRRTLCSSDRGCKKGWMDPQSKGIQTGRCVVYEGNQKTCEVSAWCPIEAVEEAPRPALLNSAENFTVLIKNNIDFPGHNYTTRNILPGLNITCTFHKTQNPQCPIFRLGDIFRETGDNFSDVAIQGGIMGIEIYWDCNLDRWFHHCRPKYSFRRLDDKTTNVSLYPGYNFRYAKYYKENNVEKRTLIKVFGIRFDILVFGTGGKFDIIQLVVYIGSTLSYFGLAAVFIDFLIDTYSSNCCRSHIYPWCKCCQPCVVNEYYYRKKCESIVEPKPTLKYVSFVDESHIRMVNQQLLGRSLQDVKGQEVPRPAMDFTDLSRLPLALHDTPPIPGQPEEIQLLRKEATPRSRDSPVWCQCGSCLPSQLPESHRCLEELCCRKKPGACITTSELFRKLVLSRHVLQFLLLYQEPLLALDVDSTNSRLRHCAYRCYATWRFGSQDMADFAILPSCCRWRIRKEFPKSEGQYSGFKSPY
# [3] = target: T2, cloned P2X7 ATP-activated channel (human P2RX7 gene expressed in HEK293 cells) (Homo sapiens, UniProt Q99572); assay: Electrochemical patch clamp assay of P2X7 receptor activation (agonist mode, QPatch HT); format: cell-based; conditions: for Individual Data Points (% Activation): single cells; for EC50: whole-cell patch clamp, holding voltage −80 mV, room temperature; for decrease in EC50 when compared to BzBz-ATP / decrease in EC50 when compared to native ATP: ratio of EC50 values
# T2 construct: HEK293 cells were stably transfected with the appropriate ion channel cDNA encoding the pore-forming channel subunit; expressed in transfected cells
# T2 sequence (Q99572 1-595): T1 sequence (Q99572 1-595)
# [4] = system: DMBA/TPA-induced skin papillomas and squamous spindle-cell carcinomas; assay: Mouse two-step DMBA/TPA skin neoplasia model, local co-treatment with BzBzATP; format: in vivo
# Method: Experiments were performed to test the hypothesis that activation of the P2X7 receptor could inhibit development of epidermal neoplasia. These experiments utilized the mouse two-step DMBA/TPA skin neoplasia model, which involves tumor initiation by local treatment with DMBA, followed by tumor promotion by local treatment with TPA. Agarwal et al, “Inhibitory effect of 18beta-glycyrrhetinic acid on 12-O-tetradecanoyl phorbol-13-acetate-induced cutaneous oxidative, stress and tumor promotion in mice” Redox Rep 10:151-157 (2005); and Guo et al, “Disruption of EphA2 receptor tyrosine kinase leads to increased susceptibility to carcinogenesis in mouse skin” Cancer Res 66:7050-7058 (2006). Mice had their dorsal skin shaved, and DMBA was applied once by topical application onto the shaved dorsal skin. TPA treatment by topical application onto the shaved dorsal skin was started one week later and continued twice a week for 12 weeks.
# Animals were divided into three groups: Control mice (n=15) that had their back shaved and were treated only with the vehicle; DMBA/TPA-treated mice (n=15); and DMBA/TPA-treated mice that were co-treated with BzBzATP twice a week from week −2 (i.e. two weeks prior to DMBA) (n=14). All treatments were applied locally on the shaved dorsal skin. Papilloma development was monitored weekly from week 5 to 12 after the DMBA. Endpoints were percent animals with at least one papilloma; number of papilloma per animal; and mean papilloma size (e.g., millimeters of the largest lesion dimension). None of the animals in the control group had developed papillomas.
# To evaluate the effects of BzBzATP, changes in skin lesions in the DMBA/TPA and DMBA/TPA+BzBzATP groups were compared relative to the length of treatment. Since formation of papillomas and cancerous lesions was time-related (i.e., for example, a marked cut-off occurs between weeks 13-14; see, FIG. 4A), data were analyzed separately for weeks 0-12 and weeks 14-28.
# [5] = week 10, DMBA/TPA+BzBzATP group
# [6] = week 12, DMBA/TPA+BzBzATP group
# [7] = week 28, DMBA/TPA+BzBzATP group
Mean % P2X7 Activation ([3]; Conc 1 μM) [%],Individual Data Points (% Activation) ([3]; Conc 1 μM),Mean % P2X7 Activation ([3]; Conc 10 μM) [%],Individual Data Points (% Activation) ([3]; Conc 10 μM),Mean % P2X7 Activation ([3]; Conc 100 μM) [%],Individual Data Points (% Activation) ([3]; Conc 100 μM),Mean % P2X7 Activation ([3]; Conc 500 μM) [%],Individual Data Points (% Activation) ([3]; Conc 500 μM),EC50 [3] [µM],decrease in EC50 when compared to BzBz-ATP [3] [%],decrease in EC50 when compared to native ATP [3] [%],Molecule,UV radical generation activity [1],EC50 [2] [µM],other results
0.0,0.1% and 0.0% and −0.2%,6.7,2.2% and 14.9% and 2.9%,16.9,7.2% and 29.6% and 13.8%,100.0,100.0%,218,,,"2′,3′-0-(4-benzoylbenzoyl)-adenosine 5′-triphosphate [BzBzATP, reference compound]",high degree of UV radical generation activity,~50,"P2X7 receptor activation efficacy, comparison in words [3]: slight improvement of receptor activation efficacy; Individual Data Points (% Activation) ([3]; Conc 200 μM): 34.8% and 41.8% and 39.4%; TUNEL staining of papilloma tissue ([4]; biopsy at week 10, basal/parabasal regions): intense TUNEL staining; decrease of the mean number of papillomas per animal ([4]; versus DMBA/TPA group): about 25%; decrease of the mean papilloma size ([4]; versus DMBA/TPA group): about 45%; proportion of living animals with cancerous lesions >200 mm^3 ([4]; versus DMBA/TPA group): differences did not reach statistical significance; proportion of living animals having a papilloma ([4]; week 5, DMBA/TPA+BzBzATP group): 48±12%; animals having at least one papilloma ([4]; week 6, DMBA/TPA+BzBzATP group): 53.8%; papillomas per animal (mean±SEM) [4, 5]: 1.23±0.34; papillomas per living animal (mean±SD) [4, 5]: 1.2±0.4; mean papilloma size per animal (mean±SEM) [4, 6]: 3.46±0.73 mm; mean total papillomas size per animal (mean±SD) [4, 6]: 3.4±1.0 mm; animals that developed at least one skin papilloma ([4]; week 12, DMBA/TPA+BzBzATP group, local on dorsal skin twice a week): 78%; proportion of living animals with cancerous lesions [4, 7]: 43±9%; proportion of living animals with cancerous lesions >10 mm^3 [4, 7]: 16±4%"
12.3,7.0% and 45.4% and 6.7% and −9.7%,74.7,36.6% and 167.5% and 39.7% and 54.9%,186.3,85.6% and 284.3% and 136.9% and 238.4%,320.8,346.4% and 357.0% and 209.5% and 370.2%,49.1,~445,~738,"Nc1ncnc2c1ncn2[C@@H]1O[C@H](COP(=O)(O)OP(=O)(O)OP(=O)(O)O)[C@@H](OC(=O)c2cccc(Oc3ccccc3)c2)[C@H]1O [ATP-(3-phenoxy)benzoyl, 3-phenoxybenzoyl-ATP]",,,
8.1,−2.1% and 26.6% and −0.3%,29.9,45.1% and 18.1% and 26.4%,42.0,38.7% and 64.8% and 22.6%,96.9,98.3% and 124.6% and 67.7%,62.4,~350,~580,"CCCCCCCCCCCC(=O)O[C@H]1[C@@H](O)[C@H](n2cnc3c(N)ncnc32)O[C@@H]1COP(=O)(O)OP(=O)(O)OP(=O)(O)O [ATP-lauroyl, lauroyl-ATP]",low or no UV radical generation activity,,EC50 ([3]; listed as lauroyl-ATP): ~62 µM; dissolution in a solution with 0.3% DMSO: not totally dissolved
,,,,,,,,363,,,"Nc1ncnc2c1ncn2[C@@H]1O[C@H](COP(=O)(O)OP(=O)(O)OP(=O)(O)O)[C@@H](O)[C@H]1O [NaATP, adenosine triphosphate, reference compound]",,~100,Mean % P2X7 Activation ([3]; Conc 300 μM): 40.9%; Mean % P2X7 Activation ([3]; Conc 750 μM): 75.4%
,,,,,,,,,,,Nc1ncnc2c1ncn2[C@@H]1O[C@H](COP(=O)(O)OP(=O)(O)OP(=O)(O)O)[C@@H](OC(=O)/C=C/c2ccccc2)[C@H]1O [cinnamoyl-ATP],low or no UV radical generation activity,,

Molecule,Mean % P2X7 Activation ([3]; Conc 1 μM) [%],Individual Data Points (% Activation) ([3]; Conc 1 μM),Mean % P2X7 Activation ([3]; Conc 10 μM) [%],Individual Data Points (% Activation) ([3]; Conc 10 μM),Mean % P2X7 Activation ([3]; Conc 100 μM) [%],Individual Data Points (% Activation) ([3]; Conc 100 μM),Mean % P2X7 Activation ([3]; Conc 500 μM) [%],Individual Data Points (% Activation) ([3]; Conc 500 μM),EC50 [3] [µM],decrease in EC50 when compared to BzBz-ATP [3] [%],decrease in EC50 when compared to native ATP [3] [%],UV radical generation activity [1],EC50 [2] [µM],other results
"Nc1ncnc2c1ncn2[C@@H]1O[C@H](COP(=O)(O)OP(=O)(O)OP(=O)(O)O)[C@@H](OC(=O)c2ccccc2)[C@H]1O [3′-O-(Benzoyl) Adenosine-5-Triphosphate, 3′-O-(benzoyl)-adenosine-5-triphosphate]",8.3,15.8% and 9.7% and −0.7%,43.0,65.4% and 42.3% and 21.3%,94.5,102.5% and 82.3% and 98.7%,129.2,148.4% and 129.1% and 110.2%,24,~910,~1511,low or no UV radical generation activity,,

# Source: patent publication US20210100826A1 (UNIVERSITY HOSPITAL CLEVELAND MEDICAL CENTER, priority 2017, published 2021)
